From PMC6788984, “High-potency ligands for DREADD imaging and activation in rodents and monkeys” (Nature Communications, 2019)
Several values for one entry are separate records, joined by “and”; a condition that tells them apart may be missing. Identical values can stand only once. Entries after “also recorded” stand apart in the source; their conditions may differ.

Assays:
[1] = test system: mu, kappa, and delta opioid receptors; assay: Binding and enzyme target profile screen (Eurofins); conditions: competitive binding screen, 10 uM
Procedure: These experiments were performed by an outside vendor (Eurofins, France). […] In each experiment, the respective reference compound was tested concurrently with the test compound to assess the assay reliability. […] Following incubation, the samples were filtered rapidly under vacuum through glass fiber filters presoaked in a buffer and rinsed several times with an ice-cold buffer using a 48-sample or 96-sample cell harvester. The filters were counted for radioactivity in a scintillation counter using a scintillation cocktail.

hM4Di = target: T1, hM4Di (Homo sapiens, UniProt P08173, A203G/Y113C); assay: [11C]clozapine PET DREADD occupancy in AAV-DREADD mice, hM4Di; conditions: 0.1 mg kg-1 IP, individual values, listed as J52
T1 sequence (P08173 1-479 Y113C/A203G): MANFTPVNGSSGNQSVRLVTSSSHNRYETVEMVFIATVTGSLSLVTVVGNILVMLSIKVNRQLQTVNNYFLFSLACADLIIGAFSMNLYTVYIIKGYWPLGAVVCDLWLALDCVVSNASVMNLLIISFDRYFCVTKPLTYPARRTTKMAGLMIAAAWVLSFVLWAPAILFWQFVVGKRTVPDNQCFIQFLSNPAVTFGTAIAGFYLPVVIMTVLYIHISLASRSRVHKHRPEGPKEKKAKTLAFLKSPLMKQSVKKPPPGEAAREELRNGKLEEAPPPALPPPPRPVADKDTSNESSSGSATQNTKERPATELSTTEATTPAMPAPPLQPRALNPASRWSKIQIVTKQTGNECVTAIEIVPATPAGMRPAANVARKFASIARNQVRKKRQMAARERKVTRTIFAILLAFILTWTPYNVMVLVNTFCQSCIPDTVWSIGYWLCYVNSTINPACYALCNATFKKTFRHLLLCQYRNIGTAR
Procedure: (§1) Animals were anesthetized with isoflurane or a mix of ketamine/xylazine and prepped on a stereotaxic apparatus (Kopf, Germany). […] When indicated, animals were pretreated with vehicle or the indicated drug 10 min before the injection of the PET radiotracer. Total acquisition time was 60 min.
In all cases, the PET data were reconstructed and corrected for dead-time and radioactive decay. All qualitative and quantitative assessments of PET images were performed using the PMOD software environment (PMOD Technologies, Zurich Switzerland). Binding potential BPND (a relative measure of specific binding) was calculated using a reference tissue model using the cerebellum as a reference tissue in rodents. In macaques, the kinetic data were fitted to a two-tissue compartment model and the concentration of parent in plasma was used as an input function, then the volume of distribution ratios compared to cerebellum were calculated to establish BPND. In all cases, the dynamic PET images were coregistered to MRI templates and time-activity curves were generated using predefined volumes of interest (macaques) or manually drawn in rodents and the described analyses were performed. Receptor occupancy was calculated using the formula: occupancy = (BPND^0 − BPND^Drug)/BPND^0 × 100, where BPND^0 is the binding potential of the baseline condition and BPND^Drug the binding potential when the animals were pretreated with the drug.

[2] = test system: animals without DREADD expression; assay: In vivo electrophysiology control: electrically evoked responses in animals without DREADD expression; design: species or system mouse; conditions: same injection
Procedure: For recording experiments, animals were anesthetized with […] urethane (i.p.), injected with 0.1 ml lidocaine (s.c.) in the incision points, and placed in a stereotaxic holder (Narishige, Japan). A trephine was drilled above the LA (from bregma, AP 1.5 mm, ML 3.1 mm) and the 32 channel opto-electrode was lowered whilst stimulating until a maximum response was located (DV 4 ± 0.2 mm). Body temperature was maintained constant at 37 °C through a feedback-regulated heating pad. Before recording, tissue was left for 10–20 mins for accommodation. Input–output test curves were recorded for both intensity and pulse length 30 min before and 1 h after drug injections using 1 ms-long pulses at 0.33 Hz (450 nm, 110 mA light intensity, ~14 mW, see Supplementary Fig. 10 Panel A). For electrical stimulation experiments (see Supplementary Fig. 10, Panels F–H), a stimulation bipolar twisted platinum–iridium microelectrode was placed in the internal capsule (AP −1.7 mm, ML 2.5 mm, DV 4.0 mm) to target the axons innervating the amygdala. Electrical pulses were given at an intensity that evoked 80% of the maximum response as biphasic 100 µs long pulses at 0.33 Hz.
Raw data were filtered (0.1–3000 Hz), amplified (100×), digitized and stored (10 kHz sampling rate) for offline analysis, with a tethered recording system (Multichannel Systems, Reutlingen, Germany). […]

DREADDs = assay: [18F]JHU37107 PET in D1-DREADD transgenic mice; type: in vivo; conditions: D1-DREADD mice, 0.1 mg kg-1 IP
Procedure: [^18F]JHU37107 was prepared via the no-carrier-added ^18F-fluorination using an FDG Nuclear Interface module (Muenster, Germany). Briefly, 4 mg precursor (8-chloro-11-(4-ethylpiperazin-1-yl)-5H-dibenzo[b,e][1,4]diazepin-2-ol) and 8 mg tris(acetonitrile)cyclopentadienylruthenium(II)hexafluorophosphate (STREM, Boston, MA) were dissolved in ethanol (0.3 mL), the solution was heated at 85 °C for 25 min and evaporated to dryness under a stream of argon gas. The residue was dissolved in DMSO (0.5 mL) and acetonitrile (0.5 mL) and the solution was added to a dry complex of [^18F]fluoride and 9 mg 1,3-bis(2,6-di-i-propylphenyl)-2-chloroimidazolium chloride (STREM). The reaction mixture was heated at 130 °C for 30 min, diluted with mixture of 0.5 mL acetonitrile, 0.5 mL water and 0.03 mL TFA and injected onto a semi-preparative HPLC column (Luna C18, 10 micron, 10 mm × 250 mm) and eluted with 23:77 (v:v) acetonitrile:water (0.1% trifluoroacetic acid) at a flow rate of 10 mL min^−1. The radioactive peak corresponding to [^18F]JHU37107 (tR = 9.9 min) was collected in a reservoir containing 50 mL of water and 3 mL aq 8.4% NaHCO3 solution. The diluted product was loaded onto a solid phase extraction cartridge (Waters Oasis HLB plus light) and rinsed with 10 mL sterile saline. The product was eluted with 1000 µL of ethanol through a sterile 0.2 μm filter into a sterile, pyrogen-free vial and 10 mL saline was added through the same filter. The final product [^18F]JHU37107 was then analyzed by analytical HPLC (Luna C18, 10 micron, 4.6 mm × 250 mm; mobile phase 23:77 (v:v) acetonitrile:water (0.1% trifluoroacetic acid), flow rate of 3 mL min^−1; […] .
Total acquisition time was 60 min.

WT littermates = assay: Locomotor activity in WT littermate rats; type: in vivo, rat
Procedure: Tyrosine hydroxylase (TH):Cre rats (n = 9; founder, K. Deisseroth lab) or WT littermates (n = 9) were bilaterally injected with AAV2 hSyn-DIO-hM3Dq-mCherry (1ul/hemisphere, Addgene), and allowed to recover for 2 + weeks. Following handling, they were habituated to a Med Associates locomotor testing box (43 × 43 × 30.5 cm) for 2 h on 2 days, then repeatedly tested after separate day doses of DREADD agonists and vehicle. […]. Vehicle was administered on 2 separate days, and average locomotion was used for comparison with DREADD agonists. Cohort 2 underwent the same procedures, but with a 4 h testing session, and the following IP injections: vehicle (x2), JHU37152 (0.01–0.3 mg kg^−1), JHU37160 (0.01–0.3 mg kg^−1). All drugs were dissolved in 5% DMSO in saline, and injected 1 ml kg^−1. Following all tests, rats were transcardially perfused, brains sectioned coronally at 40 µm, and VTA-specific expression confirmed using endogenous mCherry reporter expression, which co-localized nearly exclusively with TH immunoreactivity.

cortical hM4Di = target: T2, cortical hM4Di (Homo sapiens, UniProt P08173, A203G/Y113C); assay: [11C]clozapine PET DREADD occupancy in rats; conditions: rat, read-out: occupancy of cortical hM4Di
T2 sequence (P08173 1-479 Y113C/A203G): T1 sequence (P08173 1-479 Y113C/A203G)
Procedure: as §1
In all cases, the PET data were reconstructed and corrected for dead-time and radioactive decay. All qualitative and quantitative assessments of PET images were performed using the PMOD software environment (PMOD Technologies, Zurich Switzerland). Binding potential BPND (a relative measure of specific binding) was calculated using a reference tissue model using the cerebellum as a reference tissue in rodents. In macaques, the kinetic data were fitted to a two-tissue compartment model and the concentration of parent in plasma was used as an input function, then the volume of distribution ratios compared to cerebellum were calculated to establish BPND. […] Receptor occupancy was calculated using the formula: occupancy = (BPND^0 − BPND^Drug)/BPND^0 × 100, where BPND^0 is the binding potential of the baseline condition and BPND^Drug the binding potential when the animals were pretreated with the drug.

SMILES: c1ccc2c(c1)N=C(N1CCNCC1)c1ccccc1N2 [C21]
- binding to opioid receptors [1]: exhibited binding to mu, kappa, and delta opioid receptors; also recorded: binds to opioid receptors

SMILES: CCN1CCN(C2=Nc3cc(Cl)ccc3Nc3cccc(F)c32)CC1 [JHU37152, 8-Chloro-11-(4-ethylpiperazin-1-yl)-1-fluoro-5H-dibenzo[b,e][1,4]diazepine]
- displacement of in vivo [11C]clozapine binding, hM4Di (hM4Di): -5.675 and 34.4851 and 23.8214

SMILES: CCN1CCN(C2=Nc3cc(Cl)ccc3Nc3c(F)cccc32)CC1 [JHU37160, 8-Chloro-11-(4-ethylpiperazin-1-yl)-4-fluoro-5H-dibenzo[b,e][1,4]diazepine]
- effect on electrical stimulation evoked responses [2]: no effect
- displacement of [18F]JHU37107 PET signal (DREADDs): displaceable
- Locomotor activity, individual animals (Figure 3 Panel F) (WT littermates; dose 0.01, listed as J60): 108.174 and 103.461 and 68.1848 and 77.4203 and 88.3922 and 59.3537 and 61.4668
- Locomotor activity, individual animals (Figure 3 Panel F) (WT littermates; dose 0.1, listed as J60): 208.38 and 83.765 and 47.1951 and 156.41 and 190.369 and 42.7803 and 81.1685
- receptor occupancy at 0.1 mg/kg (cortical hM4Di): ~80%
